One may read the Ki as the equilibrium dissociation constant of an inhibitor or competing ligand from its target. A low value points to higher affinity.

Molecules are shown by their SMILES.

One data set deals with D3R (Homo sapiens, UniProt P35462). To be noted: cited from earlier work.
For data set [1] the following is noted: drug self-administration and drug discrimination, rats; cited from earlier work.
The next data set has as its target hD3R (Homo sapiens, UniProt P35462). Nature of the data set: Radioligand competition binding vs [3H]-. Conditions: for Ki: D3R Ki ± SEM, HEK293 cells stably expressing hD3R. On the technique in general: Displacement assays read how much labelled ligand stays bound in the presence of the test substance.
The target in the next data set is hD2R (Homo sapiens, UniProt P14416). Briefly: Radioligand competition binding vs [3H]-. Conditions: vs. [3H]-(R)-(+)-7-OH-DPAT; for Ki: D2R Ki ± SEM, HEK293 cells stably expressing hD2R.
Where [2] appears, read: Table 1, vs. [3H]-(R)-(+)-7-OH-DPAT.
The mark [3] stands for this setting: Table 2, vs. [3H]-(R)-(+)-7-OH-DPAT.

hD3R, sequence (P35462 whole entry): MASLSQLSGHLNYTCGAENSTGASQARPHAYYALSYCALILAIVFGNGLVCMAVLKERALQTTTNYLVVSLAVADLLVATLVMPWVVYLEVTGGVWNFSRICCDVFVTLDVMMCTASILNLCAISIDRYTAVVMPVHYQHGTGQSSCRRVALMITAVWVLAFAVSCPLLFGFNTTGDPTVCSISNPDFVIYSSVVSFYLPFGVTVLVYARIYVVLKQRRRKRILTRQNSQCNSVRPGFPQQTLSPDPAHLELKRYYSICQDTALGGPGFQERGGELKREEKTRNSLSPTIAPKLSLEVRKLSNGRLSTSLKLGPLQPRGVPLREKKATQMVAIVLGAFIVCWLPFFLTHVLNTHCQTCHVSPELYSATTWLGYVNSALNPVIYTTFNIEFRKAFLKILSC
hD2R, sequence (P14416 whole entry): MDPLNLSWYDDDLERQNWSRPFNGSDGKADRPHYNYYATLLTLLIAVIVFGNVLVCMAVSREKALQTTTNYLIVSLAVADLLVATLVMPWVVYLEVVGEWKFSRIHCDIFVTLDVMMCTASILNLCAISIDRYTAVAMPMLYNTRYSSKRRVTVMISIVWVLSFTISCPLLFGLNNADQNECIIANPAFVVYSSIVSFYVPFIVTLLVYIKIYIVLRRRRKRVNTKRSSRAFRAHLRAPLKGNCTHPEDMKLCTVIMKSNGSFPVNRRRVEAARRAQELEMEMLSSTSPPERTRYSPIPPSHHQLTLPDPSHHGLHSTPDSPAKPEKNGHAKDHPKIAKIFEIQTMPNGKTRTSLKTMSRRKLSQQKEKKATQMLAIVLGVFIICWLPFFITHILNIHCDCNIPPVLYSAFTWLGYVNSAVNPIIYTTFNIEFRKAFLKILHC
D3R, sequence (P35462 whole entry): as the sequence (P35462 whole entry) above

Regarding `CCCN1CCO[C@@H]2c3cc(O)ccc3OC[C@H]21` [Compound 1, (4aR,10bR)-4-propyl-3,4,4a,10b-tetrahydro-2H,5H-chromeno[4,3-b][1,4]oxazin-9-ol], the “D3R over D2R selectivity” value at D3R is reported as ~ 10 fold. Consider `CCCN1CC(c2ccc(N)nc2)OC[C@@H]1C` (stereo partly shown) [Compound 2], for which the abuse potential result in data set [1] is “lack of abuse potential”. On to `CCCN(CCC)C1CCc2ccc(O)cc2C1` (stereo not shown) [Compound 7-OH-DPAT, 7-Hydroxy-N,N-dipropyl-2-aminotetralin], for which the “D3R over D2R selectivity” value on D3R is ~ 10 fold. With `Oc1ccc2c(c1)[C@H]1OCCN[C@@H]1CO2` [Compound 15, (4aR,10bR)-3,4,4a,10b-tetrahydro-2H,5H-chromeno[4,3-b][1,4]oxazin-9-ol], on hD3R (vs. [3H]-(R)-(+)-7-OH-DPAT), the “reduced affinity (loss of affinity) at both D2R and D3R relative to parent 1” value is on record as > 200 fold; the “selectivity for D3R over D2R” value stood at 10 fold. Turning to `O=C(NCCCCNC1COc2ccc(O)cc2C1=O)c1cc2ccccc2[nH]1` (stereo not shown) [Compound 19a, N-(4-((6-hydroxy-4-oxochroman-3-yl)amino)butyl)-1H-indole-2-carboxamide], the Ki at hD3R (setting [2]) is 354 ± 45.1 nM. For the same compound, the “reduced affinity (loss of affinity) at both D2R and D3R relative to parent 1” value at hD3R (vs. [3H]-(R)-(+)-7-OH-DPAT) was 100–1,000 fold.

Take `O=C(NCCCCNC1COc2ccc(O)cc2C1=O)c1cc2ccccc2[nH]1` (stereo not shown) [Compound 19b, N-(4-((6-hydroxy-4-oxochroman-3-yl)amino)butyl)-1H-indole-2-carboxamide]: the Ki on hD2R (Table 1) turned out to be 1430 nM; on hD3R (setting [2]) it was 1770 nM. For the same compound, the “reduced affinity (loss of affinity) at both D2R and D3R relative to parent 1” value on hD3R (vs. [3H]-(R)-(+)-7-OH-DPAT) was 100–1,000 fold. For `CCCN(CCC)c1ccc(C2CN(CCC)[C@@H](C)CO2)cn1` (stereo partly drawn) [Compound 20, 5-((5S)-5-methyl-4-propylmorpholin-2-yl)-N,N-dipropylpyridin-2-amine], on hD3R (Table 2, ratio of Ki values vs. [3H]-(R)-(+)-7-OH-DPAT), the D4R/D3R was >4.74. `C[C@H]1CO[C@@H](c2ccc(N)nc2)CN1CCCCOc1ccc2c(c1)NC(=O)CC2` [Compound 26, 7-(4-((2S,5S)-2-(6-aminopyridin-3-yl)-5-methylmorpholino)butoxy)-3,4-dihydroquinolin-2(1H)-one]: on hD3R (27 vs 25, 26 vs 24, vs. [3H]-(R)-(+)-7-OH-DPAT), the “higher D3R affinity compared to its (2R,5S) diastereoisomer” value is on record as 775 fold. On to `C[C@H]1CO[C@@H](c2ccc(N)nc2)CN1CC1CC1CNC(=O)c1cc2ccccc2[nH]1` (stereo partly drawn) [Compound 37a, trans-N-((2-(((2S,5S)-2-(6-aminopyridin-3-yl)-5-methylmorpholino)methyl)cyclopropyl)methyl)-1H-indole-2-carboxamide], for which the “selectivity for D2R over D3R” value at hD2R is on record as ~ 5 fold. Also, the inhibition constant (Ki) at hD3R (setting [3]) is 1190 nM. In the case of `C[C@H]1CO[C@@H](c2ccc(N)nc2)CN1CC1CC1CNC(=O)c1cc2ccccc2[nH]1` (stereo partly drawn) [Compound 37b, trans-N-((2-(((2S,5S)-2-(6-aminopyridin-3-yl)-5-methylmorpholino)methyl)cyclopropyl)methyl)-1H-indole-2-carboxamide], the inhibition constant (Ki) turned out to be 707 ± 19.8 nM at hD2R (Table 2) and 404 ± 34 nM at hD3R (setting [3]). The corresponding values for `C[C@H]1CO[C@@H](c2ccc(N)nc2)CN1CC1CC1CNC(=O)c1cc2ccccc2[nH]1` (stereo partly drawn) [Compound 38a, cis-N-((2-(((2S,5S)-2-(6-aminopyridin-3-yl)-5-methylmorpholino)methyl)cyclopropyl)methyl)-1H-indole-2-carboxamide] are 1070 nM and 2150 nM. In the same order, the values of `C[C@H]1CO[C@@H](c2ccc(N)nc2)CN1CC1CC1CNC(=O)c1cc2ccccc2[nH]1` (stereo partly drawn) [Compound 38b, cis-N-((2-(((2S,5S)-2-(6-aminopyridin-3-yl)-5-methylmorpholino)methyl)cyclopropyl)methyl)-1H-indole-2-carboxamide] are 120 ± 16.6 nM and 276 ± 30 nM. On hD3R (setting [3]), `C[C@H]1CO[C@H](c2ccc(N)nc2)CN1CC1CC1CNC(=O)c1cc2ccccc2[nH]1` (stereo partly drawn) [Compound 39a, cis-N-((2-(((2R,5S)-2-(6-aminopyridin-3-yl)-5-methylmorpholino)methyl)cyclopropyl)methyl)-1H-indole-2-carboxamide] showed a Ki of 26200 nM. As to `C[C@H]1CO[C@H](c2ccc(N)nc2)CN1CC1CC1CNC(=O)c1cc2ccccc2[nH]1` (stereo partly drawn) [Compound 39b, cis-N-((2-(((2R,5S)-2-(6-aminopyridin-3-yl)-5-methylmorpholino)methyl)cyclopropyl)methyl)-1H-indole-2-carboxamide], the inhibition constant (Ki) on hD2R (Table 2) was found to be 7730 nM; on hD3R (setting [3]), 32900 nM. On to `CCc1cc(Cl)c(OC)c(N2CCN(CCCCOc3ccc4c(c3)NC(=O)CC4)CC2)c1` [Compound 57, 7-(4-(4-(3-chloro-5-ethyl-2-methoxyphenyl)piperazin-1-yl)butoxy)-3,4-dihydroquinolin-2(1H)-one], for which the “selectivity for D2R over D3R” value at hD2R is listed as 22 fold. Compound `CCCN[C@H]1CCc2nc(N)sc2C1` [Pramipexole, reference compound] showed an inhibition constant (Ki) on hD3R (setting [2]) of 1.69 nM.

The values are drawn from article PMC8272914 (Journal of medicinal chemistry, 2019).
